In ChEMBL document CHEMBL4364276, “Discovery of 4-phenyl-2H-benzo[b][1,4]oxazin-3(4H)-one derivatives as potent and orally active PI3K/mTOR dual inhibitors” (Eur J Med Chem, 2019):

Experiments:
[1] = target: Tyrosine-protein kinase receptor TYRO3 (Homo sapiens) (UniProt Q06418); test: Inhibition of human TYRO3 at 100 nM using poly[Glu:Tyr] (4:1) as substrate by [gamma-33P]-ATP assay
[2] = target: Membrane-associated tyrosine- and threonine-specific cdc2-inhibitory kinase (Homo sapiens) (UniProt Q99640); test: Inhibition of human PKMYT1 at 100 nM using MBP as substrate by [gamma-33P]-ATP assay
[3] = target: Serine/threonine-protein kinase PAK 6 (Homo sapiens) (UniProt Q9NQU5); test: Inhibition of human PAK6 at 100 nM using RRRLSFAEPG as substrate by [gamma-33P]-ATP assay
[4] = target: MAP kinase-interacting serine/threonine-protein kinase 2 (Homo sapiens) (UniProt Q9HBH9); test: Inhibition of human MNK2 at 100 nM using MBP as substrate by [gamma-33P]-ATP assay
HepG2 = test: cells; conditions: Homo sapiens, HepG2, 72 h
[5] = target: Interleukin-1 receptor-associated kinase 1 (Homo sapiens) (UniProt P51617); test: Inhibition of human IRAK1 at 100 nM using MBP as substrate by [gamma-33P]-ATP assay
[6] = target: Ephrin type-A receptor 8 (Homo sapiens) (UniProt P29322); test: Inhibition of human EPHA8 at 100 nM using poly[Glu:Tyr] (4:1) as substrate by [gamma-33P]-ATP assay
[7] = target: Calcium/calmodulin-dependent protein kinase type 1 (Homo sapiens) (UniProt Q14012); test: Inhibition of human CAMK1A at 100 nM using KKALRRQETVDAL as substrate by [gamma-33P]-ATP assay
[8] = target: Insulin-like growth factor 1 receptor (Homo sapiens) (UniProt P08069); test: Inhibition of human IGF1R at 100 nM using KKKSPGEYVNIEFG as substrate by [gamma-33P]-ATP assay
[9] = target: Mitogen-activated protein kinase 11 (Homo sapiens) (UniProt Q15759); test: Inhibition of human p38beta at 100 nM using MBP as substrate by [gamma-33P]-ATP assay
[10] = target: Mitogen-activated protein kinase kinase kinase 9 (Homo sapiens) (UniProt P80192); test: Inhibition of human MLK1 at 100 nM using casein as substrate by [gamma-33P]-ATP assay
[11] = target: Hepatocyte growth factor receptor (Homo sapiens) (UniProt P08581); test: Inhibition of human c-MET at 100 nM using KKKSPGEYVNIEFG as substrate by [gamma-33P]-ATP assay
[12] = target: Tyrosine-protein kinase HCK (Homo sapiens) (UniProt P08631); test: Inhibition of human HCK at 100 nM using KVEKIGEGTYGVVYK as substrate by [gamma-33P]-ATP assay
PC-12 = test: Cytotoxicity against rat PC12 cells assessed as reduction in cell viability at 0.625 to 20 uM incubated for 72 hrs by MTT assay; format: cell-based; conditions: pc-12, 72 h
[13] = target: SRSF protein kinase 2 (Homo sapiens) (UniProt P78362); test: Inhibition of human SRPK2 at 100 nM using GRSRSRSRSR as substrate by [gamma-33P]-ATP assay
A549 [14] = test: Antitumor activity against human A549 cells xenografted in ig dosed BALB/c nude mouse assessed as tumor growth inhibition administered for 30 days measured every 3 days during compound dosing relative to control; format: functional, organism-based
A-375 = test: Antiproliferative activity against human A375 cells assessed as reduction in cell viability incubated for 72 hrs by MTT assay; format: functional, cell-based; conditions: A-375, 72 h
[15] = target: Dual specificity protein kinase CLK4 (Homo sapiens) (UniProt Q9HAZ1); test: Inhibition of human CLK4 at 100 nM using MBP as substrate by [gamma-33P]-ATP assay
[16] = target: PI3-kinase p110-delta/p85-alpha (Homo sapiens, UniProt O00329); test: Inhibition of recombinant human full length N-terminal GST-tagged PI3Kdelta (1 to 1044 residues)/PIK3R1 (1 to 724 residues) expressed in baculovirus expression system using PIP2 as substrate incubated for 2 hrs by ADP-Glo assay
[17] = target: Mitogen-activated protein kinase kinase kinase kinase 4 (Homo sapiens) (UniProt O95819); test: Inhibition of human HGK at 100 nM using MBP as substrate by [gamma-33P]-ATP assay
[18] = target: [Pyruvate dehydrogenase (acetyl-transferring)] kinase isozyme 3, mitochondrial (Homo sapiens) (UniProt Q15120); test: Inhibition of human PDK3 at 100 nM using MBP as substrate by [gamma-33P]-ATP assay
[19] = target: Serine/threonine-protein kinase SIK1 (Homo sapiens) (UniProt P57059); test: Inhibition of human SIK1 at 100 nM using AMARAASAAALARRR as substrate by [gamma-33P]-ATP assay
[20] = target: Calcium/calmodulin-dependent protein kinase type II subunit gamma (Homo sapiens) (UniProt Q13555); test: Inhibition of human CAMK2G at 100 nM using KKLNRTLSFAEPG as substrate by [gamma-33P]-ATP assay
A549 [21] = test: cells; conditions: Homo sapiens, A549, 72 h
[22] = target: Tau-tubulin kinase 1 (Homo sapiens) (UniProt Q5TCY1); test: Inhibition of human TTBK1 at 100 nM using MBP as substrate by [gamma-33P]-ATP assay
[23] = target: Myosin light chain kinase (Homo sapiens) (UniProt Q32MK0); test: Inhibition of human MYLK3 at 100 nM using KKRPQRRYSNVF as substrate by [gamma-33P]-ATP assay
[24] = target: Dual specificity mitogen-activated protein kinase kinase 6 (Homo sapiens) (UniProt P52564); test: Inhibition of human MKK6 at 100 nM using p38alpha as substrate by [gamma-33P]-ATP assay
[25] = target: Ephrin type-A receptor 3 (Homo sapiens) (UniProt P29320); test: Inhibition of human EPHA3 at 100 nM using poly[Glu:Tyr] (4:1) as substrate by [gamma-33P]-ATP assay
[26] = target: TGF-beta receptor type-1 (Homo sapiens) (UniProt P36897); test: Inhibition of human ALK5 at 100 nM using casein as substrate by [gamma-33P]-ATP assay
[27] = target: CDK9/cyclin T1 (Homo sapiens) (UniProt O60563+P50750); test: Inhibition of human CDK9/cyclin-T1 at 100 nM using KTFCGTPEYLAPEVRREPRILSEEEQEMFRDFDYIADWC as substrate by [gamma-33P]-ATP assay; format: protein-complex assay
[28] = target: Proto-oncogene tyrosine-protein kinase ROS (Homo sapiens) (UniProt P08922); test: Inhibition of human ROS at 100 nM using KKKSPGEYVNIEFG as substrate by [gamma-33P]-ATP assay
Chain of Proto-oncogene tyrosine-protein kinase ROS (Homo sapiens) (P08922 whole entry): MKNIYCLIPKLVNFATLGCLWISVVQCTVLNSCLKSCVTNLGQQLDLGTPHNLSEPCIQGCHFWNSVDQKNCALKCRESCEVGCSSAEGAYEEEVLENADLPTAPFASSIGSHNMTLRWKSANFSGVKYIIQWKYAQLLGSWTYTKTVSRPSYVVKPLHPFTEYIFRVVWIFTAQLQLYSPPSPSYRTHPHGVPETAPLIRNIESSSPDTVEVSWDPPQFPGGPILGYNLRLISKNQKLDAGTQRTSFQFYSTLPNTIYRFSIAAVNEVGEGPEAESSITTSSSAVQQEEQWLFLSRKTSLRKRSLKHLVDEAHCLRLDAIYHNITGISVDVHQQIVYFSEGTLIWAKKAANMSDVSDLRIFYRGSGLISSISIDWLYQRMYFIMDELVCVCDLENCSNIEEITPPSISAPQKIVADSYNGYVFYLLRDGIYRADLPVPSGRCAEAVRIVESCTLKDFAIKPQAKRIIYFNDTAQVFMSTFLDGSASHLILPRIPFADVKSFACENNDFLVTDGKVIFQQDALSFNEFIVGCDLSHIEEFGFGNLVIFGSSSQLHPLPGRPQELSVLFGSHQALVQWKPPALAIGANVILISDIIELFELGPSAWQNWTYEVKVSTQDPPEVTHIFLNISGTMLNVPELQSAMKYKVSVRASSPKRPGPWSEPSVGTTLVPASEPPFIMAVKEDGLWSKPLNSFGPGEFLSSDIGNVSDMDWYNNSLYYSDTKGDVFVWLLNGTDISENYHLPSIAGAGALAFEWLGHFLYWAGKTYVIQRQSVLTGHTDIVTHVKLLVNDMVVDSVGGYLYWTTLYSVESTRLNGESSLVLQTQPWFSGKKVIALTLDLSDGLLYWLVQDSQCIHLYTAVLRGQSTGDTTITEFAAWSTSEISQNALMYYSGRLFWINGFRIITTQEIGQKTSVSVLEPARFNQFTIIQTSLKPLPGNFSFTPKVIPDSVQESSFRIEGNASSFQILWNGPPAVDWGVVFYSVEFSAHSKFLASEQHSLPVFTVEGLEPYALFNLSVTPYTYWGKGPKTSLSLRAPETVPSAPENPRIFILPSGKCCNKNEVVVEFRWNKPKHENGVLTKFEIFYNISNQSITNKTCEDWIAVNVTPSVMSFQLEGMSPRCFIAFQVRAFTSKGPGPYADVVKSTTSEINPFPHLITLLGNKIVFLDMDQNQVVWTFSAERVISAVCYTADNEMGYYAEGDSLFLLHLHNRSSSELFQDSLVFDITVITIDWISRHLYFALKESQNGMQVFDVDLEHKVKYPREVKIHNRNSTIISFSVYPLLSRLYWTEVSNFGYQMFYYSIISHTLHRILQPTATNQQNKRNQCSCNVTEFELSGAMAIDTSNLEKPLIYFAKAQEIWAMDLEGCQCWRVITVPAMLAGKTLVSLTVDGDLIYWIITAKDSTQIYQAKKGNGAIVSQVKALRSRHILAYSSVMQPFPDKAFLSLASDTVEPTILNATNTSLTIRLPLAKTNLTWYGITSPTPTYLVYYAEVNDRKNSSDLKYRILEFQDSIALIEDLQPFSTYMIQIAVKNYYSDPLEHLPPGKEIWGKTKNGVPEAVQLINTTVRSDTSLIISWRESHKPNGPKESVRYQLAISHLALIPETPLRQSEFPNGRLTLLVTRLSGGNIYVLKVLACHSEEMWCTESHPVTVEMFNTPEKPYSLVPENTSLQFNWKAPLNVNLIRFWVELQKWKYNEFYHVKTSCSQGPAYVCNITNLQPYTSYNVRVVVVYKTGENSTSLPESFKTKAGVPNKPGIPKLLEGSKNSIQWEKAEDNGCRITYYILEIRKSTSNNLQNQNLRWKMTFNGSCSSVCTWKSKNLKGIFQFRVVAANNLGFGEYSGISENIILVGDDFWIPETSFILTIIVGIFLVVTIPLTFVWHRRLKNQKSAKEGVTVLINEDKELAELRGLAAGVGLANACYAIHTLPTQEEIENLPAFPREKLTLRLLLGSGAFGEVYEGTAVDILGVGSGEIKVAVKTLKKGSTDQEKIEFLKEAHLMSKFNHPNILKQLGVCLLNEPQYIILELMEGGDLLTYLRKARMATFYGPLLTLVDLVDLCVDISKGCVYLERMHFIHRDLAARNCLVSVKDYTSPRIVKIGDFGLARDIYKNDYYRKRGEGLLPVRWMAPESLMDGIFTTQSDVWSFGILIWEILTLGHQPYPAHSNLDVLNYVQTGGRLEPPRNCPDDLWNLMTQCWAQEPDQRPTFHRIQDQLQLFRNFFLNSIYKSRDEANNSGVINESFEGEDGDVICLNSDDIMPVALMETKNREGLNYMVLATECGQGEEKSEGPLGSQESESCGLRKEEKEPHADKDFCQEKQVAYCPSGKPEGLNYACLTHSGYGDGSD

Chain of Serine/threonine-protein kinase SIK1 (Homo sapiens) (P57059 whole entry): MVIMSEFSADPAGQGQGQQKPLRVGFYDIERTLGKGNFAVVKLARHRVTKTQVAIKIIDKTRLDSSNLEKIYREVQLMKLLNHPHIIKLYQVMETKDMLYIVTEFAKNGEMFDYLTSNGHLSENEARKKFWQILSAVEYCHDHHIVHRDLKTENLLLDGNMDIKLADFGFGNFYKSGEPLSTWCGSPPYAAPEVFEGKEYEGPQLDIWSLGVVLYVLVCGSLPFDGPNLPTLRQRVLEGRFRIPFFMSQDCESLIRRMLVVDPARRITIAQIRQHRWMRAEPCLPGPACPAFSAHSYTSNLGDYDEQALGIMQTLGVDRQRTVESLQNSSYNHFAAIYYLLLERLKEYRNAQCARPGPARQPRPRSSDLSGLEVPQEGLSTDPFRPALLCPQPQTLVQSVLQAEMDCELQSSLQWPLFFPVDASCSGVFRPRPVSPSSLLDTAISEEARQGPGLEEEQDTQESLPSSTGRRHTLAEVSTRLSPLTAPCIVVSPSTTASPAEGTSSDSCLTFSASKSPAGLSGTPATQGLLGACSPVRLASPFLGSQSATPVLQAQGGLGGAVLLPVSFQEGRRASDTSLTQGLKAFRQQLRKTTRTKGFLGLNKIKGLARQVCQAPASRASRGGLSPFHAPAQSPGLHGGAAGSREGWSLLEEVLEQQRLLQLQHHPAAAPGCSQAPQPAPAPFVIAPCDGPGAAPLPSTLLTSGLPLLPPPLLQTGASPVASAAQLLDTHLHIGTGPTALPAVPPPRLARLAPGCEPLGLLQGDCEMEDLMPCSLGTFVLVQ
Chain of Myosin light chain kinase (Homo sapiens) (Q32MK0 whole entry): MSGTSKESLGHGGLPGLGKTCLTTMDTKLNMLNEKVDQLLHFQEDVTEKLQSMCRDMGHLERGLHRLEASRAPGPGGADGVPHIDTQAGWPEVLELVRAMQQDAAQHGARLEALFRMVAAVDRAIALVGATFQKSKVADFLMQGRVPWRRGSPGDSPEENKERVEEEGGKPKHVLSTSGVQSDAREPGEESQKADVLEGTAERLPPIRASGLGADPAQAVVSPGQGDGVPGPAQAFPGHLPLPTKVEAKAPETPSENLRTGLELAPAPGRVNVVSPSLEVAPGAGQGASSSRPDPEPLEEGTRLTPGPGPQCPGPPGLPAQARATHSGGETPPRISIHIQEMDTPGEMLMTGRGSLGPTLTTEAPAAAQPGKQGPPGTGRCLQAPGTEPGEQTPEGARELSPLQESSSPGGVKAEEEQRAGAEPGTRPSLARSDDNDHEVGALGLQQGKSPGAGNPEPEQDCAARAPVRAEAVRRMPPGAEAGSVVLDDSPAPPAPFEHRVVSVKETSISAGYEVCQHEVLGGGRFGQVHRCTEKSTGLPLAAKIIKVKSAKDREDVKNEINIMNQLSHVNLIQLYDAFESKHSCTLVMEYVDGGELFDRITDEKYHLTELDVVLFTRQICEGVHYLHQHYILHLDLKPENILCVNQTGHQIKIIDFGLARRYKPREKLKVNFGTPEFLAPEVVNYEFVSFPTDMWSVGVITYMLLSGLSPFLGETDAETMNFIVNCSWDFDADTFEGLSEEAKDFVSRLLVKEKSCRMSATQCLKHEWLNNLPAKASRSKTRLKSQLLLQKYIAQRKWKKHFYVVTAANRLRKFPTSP
Chain of TGF-beta receptor type-1 (Homo sapiens) (P36897 whole entry): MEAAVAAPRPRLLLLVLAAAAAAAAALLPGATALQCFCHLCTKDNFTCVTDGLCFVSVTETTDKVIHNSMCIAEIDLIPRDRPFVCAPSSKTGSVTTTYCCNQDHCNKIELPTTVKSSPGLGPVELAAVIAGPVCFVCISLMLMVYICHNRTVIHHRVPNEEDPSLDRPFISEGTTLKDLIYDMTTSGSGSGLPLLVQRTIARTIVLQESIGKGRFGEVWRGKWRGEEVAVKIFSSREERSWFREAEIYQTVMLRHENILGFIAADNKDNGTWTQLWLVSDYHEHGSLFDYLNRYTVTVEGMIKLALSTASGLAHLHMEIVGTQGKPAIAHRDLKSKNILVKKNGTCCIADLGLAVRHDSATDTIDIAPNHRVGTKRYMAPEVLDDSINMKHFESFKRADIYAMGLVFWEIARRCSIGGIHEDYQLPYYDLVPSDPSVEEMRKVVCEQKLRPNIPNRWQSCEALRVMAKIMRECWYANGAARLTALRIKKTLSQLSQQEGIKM
Chain of Membrane-associated tyrosine- and threonine-specific cdc2-inhibitory kinase (Homo sapiens) (Q99640 whole entry): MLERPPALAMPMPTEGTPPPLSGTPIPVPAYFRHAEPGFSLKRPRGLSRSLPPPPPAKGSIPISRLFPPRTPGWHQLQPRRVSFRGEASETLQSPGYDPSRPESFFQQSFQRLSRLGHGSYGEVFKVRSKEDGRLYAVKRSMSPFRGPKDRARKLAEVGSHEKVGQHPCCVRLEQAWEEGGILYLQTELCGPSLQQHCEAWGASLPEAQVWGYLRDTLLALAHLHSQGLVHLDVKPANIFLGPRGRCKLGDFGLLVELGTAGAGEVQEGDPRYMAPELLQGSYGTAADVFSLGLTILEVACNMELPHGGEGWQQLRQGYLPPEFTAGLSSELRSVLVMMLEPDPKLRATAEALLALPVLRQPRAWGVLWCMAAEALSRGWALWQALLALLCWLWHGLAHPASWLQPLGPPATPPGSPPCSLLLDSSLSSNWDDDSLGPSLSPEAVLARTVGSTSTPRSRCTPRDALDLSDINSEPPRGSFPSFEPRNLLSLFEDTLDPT

In the case of `COc1ccc(N2C(=O)COc3ccc(-c4cnc(OC)c(NS(=O)(=O)c5ccc(F)cc5)c4)cc32)cc1`, the inhibition [1] is reported as 3.03%, the inhibition [2] is reported as 14% and the inhibition [3] is reported as 2.76%. The inhibition [4] was 21.1%, the IC50 (HepG2) was 13.1 µM and the inhibition [5] was -5.22%. It also gave an inhibition [6] of -2.71%, an inhibition [7] of 1.42% and an inhibition [8] of -4.3%. For the same molecule, the inhibition [9] was 9.33%, the inhibition [10] was 0.68% and the inhibition [11] was -7.9%. For the same molecule, the inhibition [12] was 7.23%, the Activity (PC-12) was “Non-Toxic” and the inhibition [13] was -0.24%. The TGI (A549 [14]) was “Dose-dependent effect”, the IC50 (A-375) was 18.4 µM and the inhibition [15] was 6.64%. It also gave an IC50 [16] of 0.0092 µM, an inhibition [17] of 19.4% and an inhibition [18] of 8.78%. The inhibition [19] was 5.31%, the inhibition [20] was 2.55% and the IC50 (A549 [21]) was 1.35 µM. It also gave an inhibition [22] of -1.55%, an inhibition [23] of 3.77% and an inhibition [24] of 4.5%. It also gave an inhibition [25] of 20.6%, an inhibition [26] of 0.84% and an inhibition [27] of 16.8%. The inhibition [28] was 15.3%.
